Measured values from patent US20230009323A1, “COMPOUNDS AND METHODS FOR THE TREATMENT OF CRYPTOSPORIDIOSIS” (The Broad Institute, Inc., priority 2019, published 2023).

How the values were obtained:
[1] = tested on: C. parvum (Field Isolate) WSU; assay: C. parvum field isolate (WSU) growth in HCT-8 cells; assay type: cell-based; details: Cryptosporidium parvum
Description: Studies using farm C. parvum isolates and the C. hominis TU502 isolate were performed by Calibr at Scripps Research (La Jolla, Calif.) in 1,536-well plates using a slightly modified immunofluorescence assay as described in Love, M. S. et al. PLoS neglected tropical diseases 11, e0005373, doi:10.1371/journal.pntd.0005373 (2017), hereby incorporated by reference in its entirety. HCT-8 cell culture medium was replaced with RPMI 1640 medium supplemented with 2% heat-inactivated horse serum, 100 U·mL^−1 penicillin, and […] 24 h prior to infection with the indicated isolate. The C. parvum Iowa isolate was included as a reference in all experiments. Imaging was performed using a Cellnsight CX5 High Content screening platform (Thermo Scientific) with a 10× objective and acquisition of one microscopic field per well. Images were processed using HCS Studio Scan software, and the selected-object count (HCT-8 cells) and spot count (parasitophorous vacuoles) were analyzed in Genedata Screener (version 13.0; Standard). Dose-response curves and EC50 values were calculated using the Smart Fit function of Genedata Analyzer.

[2] = biological target: recombinant C. hominis PheRS (ChPheRS) (Cryptosporidium hominis, UniProt A0A0S4TD72); assay: C. hominis PheRS aminoacylation assay; assay type: biochemical; details: aminoacylation activity
Description: The protein sequences of C. hominis PheRS alpha (Chro.30378) and beta subunits (Chro.80385) were retrieved from the Crypto DB (https://cryptodb.org/cryptodb/). Genes were inserted to pETM 11 and pETM 20 vectors and both alpha and beta subunits were co-expressed in E. coli B834 competent cells. Recombinant proteins were expressed by growing cells at 37° C. to OD600 of 0.6-0.8, followed by induction with 0.6 mM isopropyl β-d-1-thiogalactopyranoside (IPTG). The cells were later harvested by centrifugation at 5,000×g and cell pellet suspended in a buffer containing 50 mM Tris-HCl (pH 8.8), 200 mM NaCl, 4 mM [3-mercaptoethanol, 10% (v/v) glycerol, 0.1 mg ml-1 lysozyme and 1 mM phenylmethylsulfonyl fluoride (PMSF)]. The bacterial cells were lysed using sonication and cleared by centrifugation at 20,000×g for 45 mins. […]

[3] = tested on: transgenic C. parvum (L482+V482 mixed or wt L482); assay: IFN-γ knockout mice infected with transgenic C. parvum, fecal luminescence; assay type: in vivo, C57BL/6 IFN-γ knockout mice; details: 10 mg/kg for five days (days 4-8 post-infection); day 7
Excerpt: All mouse studies described in this section were approved by the Institutional Animal Care and Use Committee of the University of Georgia and University of Pennsylvania. Cryptosporidium parvum IOWA-II oocysts were purchased from Bunch Grass Farms, Deary, Id., USA. Oocysts were excysted and electroporated with Cas9/guide plasmid and repair DNA template using Lonza Nucleofector 4D device and previously optimized protocols described in Vinayak, S. et al. Nature 523, 477-480, doi:10.1038/nature14651 (2015) and Pawlowic, et al. Curr Protoc Microbiol 46, 20B 22 21-20B 22 32, doi:10.1002/cpmc.33 (2017), each hereby incorporated by reference in their entirety. C57BL/6 IFN-γ knockout mice (Jackson Laboratory) aged 4-6 weeks (n=5) were infected with transfected sporozoites suspended in PBS using surgery described previously or an oral gavage procedure. The oral gavage procedure involved buffering of the acidic stomach with 8% sodium bicarbonate before delivery of sporozoites.
Fecal samples were collected from cages and luminescence measurements were performed as described in Manjunatha, U. H. et al. Nature 546, 376-380, doi:10.1038/nature22337 (2017) and Vinayak, S. et al. Nature 523, 477-480, doi:10.1038/nature14651 (2015), each hereby incorporated by reference in their entirety. […] During passaging, mice were monitored for weight loss, fur ruffling, hunched posture, and inactivity. […]

Q: With `COc1ccc(NC(=O)N2CCCCN3[C@H](CN(C)C)[C@H](c4ccc(C#Cc5ccccc5)cc4)[C@@H]3C2)cc1` [Compound 11, (8R,9S,10S)-10-((dimethylamino)methyl)-N-(4-methoxyphenyl)-9-(4-(phenylethynyl)phenyl)-1,6-diazabicyclo[6.2.0]decane-6-carboxamide] as the molecule, how does the EC50 [1] read?
A: Its EC50 is 23 nM.

Q: What about the IC50 [2] of the same molecule?
A: The IC50 was 60 nM.

Q: And the “fecal luciferase activity (parasite shedding)” value [3]?
A: Its value is “decrease in luciferase activity”.
